Here are results for six compounds from patent US9682024B2, “Protection against sunburn and skin problems with topical and orally-ingested dosages of zeaxanthin” (ZeaVision, LLC, priority 2002, dated 2017).

SMILES strings stand for the structures. Some results are limits rather than exact numbers.

The conditions of data set [1]: according to Lorenz, US 6,433,025; cited from earlier work.
In the next data set the test system is retinas. The settings on record: in vivo; cited from earlier work.
A further data set deals with human fibroblast cells. Particulars: Eichler et al 2002; cited from earlier work.
The subject of data set [2] is skin. Briefly: Minimal erythemal dosage (MED) test with medical-grade UV lamp after oral zeaxanthin. It is filed as in vivo, human.
Data set [3] deals with skin. Briefly: Sunburn protection during prolonged exposure to direct sunlight after oral zeaxanthin. It is filed as in vivo, human. As for the experimental part:
(§1) That dosage was in the range of about 60 mg of zeaxanthin per day for roughly 2 weeks, then about 80 mg/day for a week).
While in the Caribbean, they intentionally exposed themself to direct sunlight at a substantially higher intensity than they normally received in their home state of Missouri, for sufficient periods of time to give them an “onset” type of sunburn, which would convert to a suntan over a span of several days if they took proper care of their skin and put lotion on it. […] Instead, any mild redness they experienced in the evening, at the end of a day with a prolonged session in the sun, was not accompanied by sensations of pain, burning, tightness, or dryness in the skin, and it converted to a normal (or slightly reddish, but not uncomfortable) suntan within less than 24 hours.
(§2) One coworker began taking 10 mg/day during April, and increased to 20 mg/day during May, and then increased to 40 mg/day during June. […] In July, they increased their dosage to 80 mg/day during several week-long periods, to see what effect it would have on skin color, and on sunburn resistance.
On a couple of weekend days during July, and during a family vacation in early August, they deliberately subjected themself to prolonged sun exposure without any sun-blocking lotion, including sessions that normally would have caused them substantial or severe sunburns accompanied by serious discomfort. Instead of receiving those types of sunburns, by the evening of a day like that, they could detect some redness in their skin color, and a heightened condition of skin sensitivity; however, they felt no serious discomfort or sense of “radiating heat” in their skin, and no interference with their ability to sleep comfortably; in addition, by the following day, the redness appeared to be entirely gone.
(§3) After seeing and hearing the highly positive results obtained by the two people described in Examples 1 and 2, another coworker decided to also begin taking zeaxanthin at 40 mg/day, starting a couple of weeks before going on a summer vacation with their family.
(§4) A third coworker began taking 10 mg of zeaxanthin per day. Although they were aware of the above-described anecdotal reports of sunburn protection being provided by higher dosages, they decided to not alter their dosage, and they stayed at a dosage of 10 mg/day.

The test system of data set [4] is skin. Briefly: Darkening of skin color after oral zeaxanthin. It is filed as in vivo, human. How it is done: as §1, §2, §3, §4
Promptly after that baseline determination, this person began ingesting 30 mg of zeaxanthin per day (10 mg with […] morning meal, and 20 mg with […] evening meal, using the 10 mg capsules available from ZeaVision LLC). During that time, […] continued to take the same anti-oxidant regimen as before. […] […] then re-tested […], using the same UV lamp and procedures as before.

Data set [5] can be described thus: Tolerability and excretion of high oral zeaxanthin dosages. Format: in vivo, human.
For data set [6] the following is noted: in vivo.
From the text: One aspect of that project involved testing both zeaxanthin and lutein, in various dosages and formulations, to evaluate the increases that would result in circulating blood, and in retinal tissue, in human volunteers. A set of tests on human volunteers was developed with assistance by outside experts with skill and experience in that type of planning, and proper steps were taken to obtain informed consent from all volunteers.
The conditions of data set [7]: reported to US-FDA by Roche Vitamins Inc.; cited from earlier work.
The conditions of data set [8]: cited from earlier work.
For a further data set, the system named is lung cancer. Particulars: smokers; daily ingestion of 30 to 60 mg/day; cited from earlier work.
In data set [9] the test system is skin diseases such as porphyria. Particulars: cited from earlier work.
For a further data set, the system named is skin cells in culture. Particulars: quoted from Biesalski et al 2001; cited from earlier work.

For the compound `CC1=C(/C=C/C(C)=C/C=C/C(C)=C/C=C/C=C(C)/C=C/C=C(C)/C=C/C2=C(C)C(=O)[C@@H](O)CC2(C)C)C(C)(C)C[C@H](O)C1=O` [astaxanthin], in data set [1], the “potency as anti-oxidant protective agent versus other carotenoids” value is listed as “roughly ten times the potency”.
On to `CC1=C(/C=C/C(C)=C/C=C/C(C)=C/C=C/C=C(C)/C=C/C=C(C)/C=C/C2=C(C)C(=O)CCC2(C)C)C(C)(C)CCC1=O` [canthaxanthin], for which the retinal side effect result in the data set with retinas was “canthaxanthin crystals were being formed and deposited in the retinas”.
Turning to `CC1=C[C@H](O)CC(C)(C)[C@H]1/C=C/C(C)=C/C=C/C(C)=C/C=C/C=C(C)/C=C/C=C(C)/C=C/C1=C(C)C[C@@H](O)CC1(C)C` [lutein], the “amount of carotenoid needed for optimal protection” value (shortened to “amount of carotenoid needed”) in the data set on human fibroblast cells was 0.30 nmol/mg protein.
Consider `CC(C)=CCC/C(C)=C/C=C/C(C)=C/C=C/C(C)=C/C=C/C=C(C)/C=C/C=C(C)/C=C/C=C(\C)CCC=C(C)C` [lycopene], for which, in the data set on human fibroblast cells, the “amount of carotenoid needed” value is reported as 0.05 nmol/mg protein.
Regarding `CC1=C(/C=C/C(C)=C/C=C/C(C)=C/C=C/C=C(C)/C=C/C=C(C)/C=C/C2=C(C)C[C@@H](O)CC2(C)C)C(C)(C)C[C@H](O)C1` [zeaxanthin], the “MED increase, post-ingestion compared to pre-ingestion” value in the data set with skin [2] (each volunteer of the UV lamp tests, 30 mg/day or higher) is given as greater than 30%. For the same compound, in the data set on skin [2] (first inventor, 60 mg/day for another 3 weeks, baseline 7), the “MED level relative to baseline value” is “more than double”. Further, the “post-ingestion MED (minimal erythemal dosage)” value was determined as 10.5 min in the data set on skin [2] (first inventor, oral 30 mg/day for 3 weeks, baseline 7.0 minutes, on top of anti-oxidant regimen); 16 min in the data set with skin [2] (first inventor, then 60 mg/day for another 3 weeks, baseline 7.0 minutes); 10 min with skin [2] (second volunteer, 60 mg/day for 20 days, baseline 5.0 minutes). Also, the “MED value relative to baseline” value in the data set with skin [2] (second volunteer, 60 mg/day for 20 days) is reported as “doubled”. Further, the “redness of longest-duration UV-exposed skin patches” value in the data set with skin [2] (two subjects after ingesting zeaxanthin, UV up to >20 minutes and up to 15 minutes) was “plateau effect”. The “peeling or flaking of clearly UV-burned spots” value with skin [2] (two subjects, post-ingestion tests, after several days) is on record as “did not begin peeling or flaking”. In addition, the “time for mild redness to convert to normal suntan” value with skin [3] (Example 1, about 60 then 80 mg/day) is reported as “less than 24 hours”. The “sunburn after prolonged direct sunlight” value in the data set on skin [3] (Example 1, about 60 then 80 mg/day, Caribbean) is recorded as “did not get sunburned in the normal manner”. In the data set with skin [3] (Example 2 coworker, up to 80 mg/day), the “sunburn after prolonged sun exposure without sun-blocking lotion” value is listed as “excellent protection against sunburn”. Further, in the data set on skin [3] (Example 3 coworker, 40 mg/day), the “sunburn after prolonged sun exposure with no protective lotion” value is on record as “had not suffered any sunburns”. Moreover, the “sunburn after prolonged session of exposure to the sun” value in the data set with skin [3] (Example 4 coworker, 10 mg/day) was “suffered a noticeable sunburn”. The skin color change entry in the data set with skin [4] (Example 1, about 60 mg/day roughly 2 weeks, then about 80 mg/day for a week) was “noticeable change in the color and tint of their skin”; in the data set on skin [4] (Example 2 coworker, 40 mg/day), “slight but noticeable darkening of their skin”; with skin [4] (Example 2 coworker, 80 mg/day during several week-long periods), “noticeably darker”; with skin [4] (Example 3 coworker, 40 mg/day for a couple of weeks), “mildly darker and more tanned shade”; with skin [4] (Example 4 coworker, 10 mg/day), “could not detect any change in their skin color”; in the data set on skin [4] (first inventor, 30 mg/day for three weeks) it was “slightly perceptible color change in the palms of the hands”. Besides, in the data set with skin [4] (all volunteers who ingested 30 mg or more per day), the skin coloration entry is “darkened coloration”. For the same compound, in [5] (high dosages, humans), the fecal coloration entry is listed as “changes in fecal coloration”. The adverse effects entry in data set [5] (second inventor, 80 mg/day) is given as “no adverse effects”. For the same compound, in data set [6], the “dosage response in circulating blood concentrations” value is “valid dosage response”. Besides, in [7], the “No Adverse Effect Level (NOAEL)” value is 1200 mg/day. Besides, the solubility in water entry in [8] is recorded as “not soluble in water”.
In the case of `CC1=C(/C=C/C(C)=C/C=C/C(C)=C/C=C/C=C(C)/C=C/C=C(C)/C=C/C2=C(C)CCCC2(C)C)C(C)(C)CCC1` [β-carotene], the “amount of carotenoid needed” value in the data set with human fibroblast cells was 0.40 nmol/mg protein. Further, the “elevation of risk of lung cancer” value in the data set on lung cancer is on record as roughly 30%. In data set [9], the “effective dosage level to treat skin diseases” value is 180 mg/day. Moreover, the “oxidant properties in cultured skin cells” value with skin cells in culture is recorded as “unexpected prooxidant properties”.
